# Columns and labels:
# [1] = target: Tyrosine-protein kinase HCK (Homo sapiens, UniProt P08631); experiment: Inhibition of full-length human N-terminal GST-tagged HCK expressed in baculovirus expression system by Z'-LYTE assay
# [2] = target: MDR1 (ABCB1, P-glycoprotein) (Rattus norvegicus, UniProt P43245); experiment: Substrate activity at rat MDR1 expressed in LLC-PK1 cells assessed as efflux ratio of permeability across basolateral to apical over apical to basolateral side at 5 uM; format: ADME, cell-based
# [3] = Solubility of the compound at pH 2; format: physicochemical; conditions: buffer
# [4] = target: MAP kinase-activated protein kinase 2 (Homo sapiens, UniProt P49137); experiment: Inhibition of full-length recombinant human His-tagged MAPKAPK2 expressed in Escherichia coli by Z'-LYTE assay
# [5] = target: Serine/threonine-protein kinase Nek4 (Homo sapiens, UniProt P51957); experiment: Inhibition of full-length recombinant human GST-tagged NEK4 expressed in baculovirus expression system by Z'-LYTE assay
# [6] = target: Death-associated protein kinase 1 (Homo sapiens, UniProt P53355); experiment: Inhibition of recombinant human GST-tagged DAPK1 catalytic domain expressed in baculovirus expression system by Adapta assay
# [7] = target: G protein-coupled receptor kinase 4 (Homo sapiens, UniProt P32298); experiment: Inhibition of full-length recombinant human GST-tagged GRK4 expressed in baculovirus expression system by Z'-LYTE assay
# [8] = Inhibition of full-length recombinant human GST-tagged PKG2 expressed in baculovirus expression system by Z'-LYTE assay
# [9] = Oral bioavailability in Sprague-Dawley rat at 5 mL/kg administered through gastric gavage measured after 24 hrs by LC-MS/MS analysis; format: ADME, organism-based; conditions: in vivo
# [10] = target: Misshapen-like kinase 1 (Homo sapiens, UniProt Q8N4C8); experiment: Inhibition of recombinant human His-tagged MINK1 catalytic domain expressed in baculovirus expression system by Z'-LYTE assay
# [11] = target: Ribosomal protein S6 kinase alpha-3 (Homo sapiens, UniProt P51812); experiment: Inhibition of full-length recombinant human His-tagged RPS6KA3 expressed in baculovirus expression system by Z'-LYTE assay
# [12] = target: RAC-gamma serine/threonine-protein kinase (Homo sapiens, UniProt Q9Y243); experiment: Inhibition of full-length recombinant human His-tagged AKT3 expressed in baculovirus expression system by Z'-LYTE assay
# [13] = target: MDR1 (ABCB1, P-glycoprotein) (Homo sapiens, UniProt P08183); experiment: Substrate activity at human MDR1 expressed in LLC-PK1 cells assessed as efflux ratio of permeability across basolateral to apical over apical to basolateral side at 5 uM; format: ADME, cell-based
# [14] = target: Serine/threonine-protein kinase PLK1 (Homo sapiens, UniProt P53350); experiment: Inhibition of full-length recombinant human His-tagged PLK1 expressed in baculovirus expression system by Z'-LYTE assay
# [15] = Half life in Sprague-Dawley rat at 1 mL/kg, iv administered through catheter measured after 24 hrs by LC-MS/MS analysis; format: ADME, organism-based; conditions: in vivo
# [16] = Volume of distribution in Beagle dog at 0.5 mL/kg, iv administered through catheter or 5 mL/kg, administered through gastric gavage measured after 24 hrs by LC-MS/MS analysis; format: ADME, organism-based, Canis lupus familiaris; conditions: in vivo
# [17] = Clearance in Beagle dog at 0.5 mL/kg, iv administered through catheter measured after 24 hrs by LC-MS/MS analysis; format: ADME, organism-based, Canis lupus familiaris; conditions: in vivo
# [18] = Solubility of the compound at pH 7; format: physicochemical; conditions: buffer
# [19] = Half life in Beagle dog at 0.5 mL/kg, iv administered through catheter or 5 mL/kg, administered through gastric gavage measured after 24 hrs by LC-MS/MS analysis; format: ADME, organism-based, Canis lupus familiaris; conditions: in vivo
# Sequence of RAC-gamma serine/threonine-protein kinase (Q9Y243 whole entry): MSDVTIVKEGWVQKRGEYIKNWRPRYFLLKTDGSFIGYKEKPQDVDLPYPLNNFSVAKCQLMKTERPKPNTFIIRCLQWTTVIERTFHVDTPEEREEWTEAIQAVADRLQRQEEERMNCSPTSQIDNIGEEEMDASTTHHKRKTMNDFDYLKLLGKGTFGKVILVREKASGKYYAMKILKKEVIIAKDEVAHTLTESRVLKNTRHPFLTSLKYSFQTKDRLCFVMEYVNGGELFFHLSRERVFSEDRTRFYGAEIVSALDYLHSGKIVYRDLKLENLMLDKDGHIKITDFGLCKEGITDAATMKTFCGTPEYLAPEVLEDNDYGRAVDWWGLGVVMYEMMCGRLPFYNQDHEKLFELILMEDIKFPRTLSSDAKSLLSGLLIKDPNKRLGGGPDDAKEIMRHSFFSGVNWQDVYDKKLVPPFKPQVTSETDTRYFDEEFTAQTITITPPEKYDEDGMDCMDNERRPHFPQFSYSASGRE
# Sequence of Misshapen-like kinase 1 (Q8N4C8 whole entry, the tested form may be a part): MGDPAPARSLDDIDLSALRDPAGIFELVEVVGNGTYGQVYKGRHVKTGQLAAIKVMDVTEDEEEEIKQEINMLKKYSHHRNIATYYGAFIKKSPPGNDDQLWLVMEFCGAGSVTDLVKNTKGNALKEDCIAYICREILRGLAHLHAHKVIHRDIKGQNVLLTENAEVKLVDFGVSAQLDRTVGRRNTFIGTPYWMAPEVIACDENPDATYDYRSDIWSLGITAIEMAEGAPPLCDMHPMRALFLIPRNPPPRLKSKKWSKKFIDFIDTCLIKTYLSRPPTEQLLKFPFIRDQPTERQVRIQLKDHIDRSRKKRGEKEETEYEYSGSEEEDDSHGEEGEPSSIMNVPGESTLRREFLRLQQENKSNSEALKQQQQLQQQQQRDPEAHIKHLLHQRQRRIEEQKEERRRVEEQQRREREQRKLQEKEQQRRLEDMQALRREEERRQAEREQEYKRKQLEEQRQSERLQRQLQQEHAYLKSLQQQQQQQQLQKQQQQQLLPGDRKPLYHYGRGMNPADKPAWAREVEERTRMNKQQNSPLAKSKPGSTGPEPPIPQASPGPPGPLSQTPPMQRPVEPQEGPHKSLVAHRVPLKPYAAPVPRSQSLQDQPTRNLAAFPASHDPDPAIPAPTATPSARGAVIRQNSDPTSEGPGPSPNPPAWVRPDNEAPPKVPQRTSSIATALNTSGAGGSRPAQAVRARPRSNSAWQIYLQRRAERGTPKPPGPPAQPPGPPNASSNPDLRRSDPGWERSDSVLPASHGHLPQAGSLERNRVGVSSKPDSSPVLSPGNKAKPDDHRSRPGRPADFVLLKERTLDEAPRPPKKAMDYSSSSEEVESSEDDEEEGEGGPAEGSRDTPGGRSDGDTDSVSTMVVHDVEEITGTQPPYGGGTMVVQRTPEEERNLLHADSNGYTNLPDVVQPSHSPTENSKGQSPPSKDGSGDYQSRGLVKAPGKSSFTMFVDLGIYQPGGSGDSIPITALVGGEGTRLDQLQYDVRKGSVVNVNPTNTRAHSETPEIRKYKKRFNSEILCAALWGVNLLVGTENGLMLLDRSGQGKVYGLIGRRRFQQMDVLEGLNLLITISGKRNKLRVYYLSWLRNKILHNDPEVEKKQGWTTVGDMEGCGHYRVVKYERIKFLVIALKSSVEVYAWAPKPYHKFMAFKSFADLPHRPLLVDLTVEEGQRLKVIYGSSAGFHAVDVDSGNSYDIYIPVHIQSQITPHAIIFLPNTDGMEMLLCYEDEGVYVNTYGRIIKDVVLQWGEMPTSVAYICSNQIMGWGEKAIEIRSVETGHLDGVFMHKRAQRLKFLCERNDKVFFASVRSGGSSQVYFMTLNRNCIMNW
# Sequence of MDR1 (ABCB1, P-glycoprotein) (Homo sapiens, UniProt P08183) (P08183 whole entry): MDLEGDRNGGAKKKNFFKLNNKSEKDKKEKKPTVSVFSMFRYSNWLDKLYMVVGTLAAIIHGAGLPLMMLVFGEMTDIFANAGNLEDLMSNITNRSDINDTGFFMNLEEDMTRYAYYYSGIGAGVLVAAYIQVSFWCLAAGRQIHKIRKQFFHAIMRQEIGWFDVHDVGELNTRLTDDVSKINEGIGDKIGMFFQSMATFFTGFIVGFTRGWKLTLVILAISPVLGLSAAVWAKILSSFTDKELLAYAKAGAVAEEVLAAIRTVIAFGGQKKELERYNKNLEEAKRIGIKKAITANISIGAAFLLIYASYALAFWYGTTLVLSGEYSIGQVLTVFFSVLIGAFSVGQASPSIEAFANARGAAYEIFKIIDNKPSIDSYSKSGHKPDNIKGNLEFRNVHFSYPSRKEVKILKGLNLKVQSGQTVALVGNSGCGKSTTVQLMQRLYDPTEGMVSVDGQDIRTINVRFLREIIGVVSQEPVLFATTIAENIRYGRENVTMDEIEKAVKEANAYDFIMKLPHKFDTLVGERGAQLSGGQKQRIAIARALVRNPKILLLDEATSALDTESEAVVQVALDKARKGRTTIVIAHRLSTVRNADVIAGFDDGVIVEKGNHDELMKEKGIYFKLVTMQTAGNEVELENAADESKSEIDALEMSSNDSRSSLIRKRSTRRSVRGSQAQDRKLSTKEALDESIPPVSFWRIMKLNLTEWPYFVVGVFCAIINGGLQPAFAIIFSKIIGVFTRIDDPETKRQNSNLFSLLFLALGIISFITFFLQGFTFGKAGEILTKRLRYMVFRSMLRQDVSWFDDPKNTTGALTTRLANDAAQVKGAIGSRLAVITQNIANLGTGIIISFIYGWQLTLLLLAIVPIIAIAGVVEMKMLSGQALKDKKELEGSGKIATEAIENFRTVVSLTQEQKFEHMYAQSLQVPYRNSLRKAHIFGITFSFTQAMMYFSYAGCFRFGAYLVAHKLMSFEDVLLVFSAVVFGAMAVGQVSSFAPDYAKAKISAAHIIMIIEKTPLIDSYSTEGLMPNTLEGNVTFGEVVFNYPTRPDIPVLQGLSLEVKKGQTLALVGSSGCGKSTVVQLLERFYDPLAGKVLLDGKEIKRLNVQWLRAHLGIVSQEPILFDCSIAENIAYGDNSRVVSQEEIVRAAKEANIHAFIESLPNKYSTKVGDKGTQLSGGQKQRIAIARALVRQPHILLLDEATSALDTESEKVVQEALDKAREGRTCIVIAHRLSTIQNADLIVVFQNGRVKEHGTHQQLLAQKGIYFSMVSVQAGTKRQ
# Sequence of Serine/threonine-protein kinase Nek4 (P51957 whole entry, the tested form may be a part): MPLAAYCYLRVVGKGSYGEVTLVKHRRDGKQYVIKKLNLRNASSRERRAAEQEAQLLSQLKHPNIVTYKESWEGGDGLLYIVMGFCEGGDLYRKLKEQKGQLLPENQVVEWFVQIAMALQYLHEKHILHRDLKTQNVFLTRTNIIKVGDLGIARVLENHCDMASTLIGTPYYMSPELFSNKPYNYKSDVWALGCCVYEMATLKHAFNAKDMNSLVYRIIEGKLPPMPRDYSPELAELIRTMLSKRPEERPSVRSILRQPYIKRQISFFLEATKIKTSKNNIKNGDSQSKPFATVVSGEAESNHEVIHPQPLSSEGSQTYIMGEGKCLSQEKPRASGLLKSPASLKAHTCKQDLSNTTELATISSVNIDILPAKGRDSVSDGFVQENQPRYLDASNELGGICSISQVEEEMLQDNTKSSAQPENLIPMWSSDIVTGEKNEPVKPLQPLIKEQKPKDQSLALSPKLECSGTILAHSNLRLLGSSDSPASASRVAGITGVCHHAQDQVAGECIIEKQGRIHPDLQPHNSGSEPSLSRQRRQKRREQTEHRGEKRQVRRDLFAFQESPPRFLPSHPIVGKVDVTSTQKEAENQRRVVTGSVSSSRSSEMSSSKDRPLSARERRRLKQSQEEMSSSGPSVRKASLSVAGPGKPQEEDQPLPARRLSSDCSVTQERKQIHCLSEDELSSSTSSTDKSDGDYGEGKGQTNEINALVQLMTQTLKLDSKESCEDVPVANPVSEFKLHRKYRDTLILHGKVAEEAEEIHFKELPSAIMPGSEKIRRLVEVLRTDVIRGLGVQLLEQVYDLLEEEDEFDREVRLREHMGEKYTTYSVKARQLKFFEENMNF
# Sequence of MAP kinase-activated protein kinase 2 (P49137 whole entry): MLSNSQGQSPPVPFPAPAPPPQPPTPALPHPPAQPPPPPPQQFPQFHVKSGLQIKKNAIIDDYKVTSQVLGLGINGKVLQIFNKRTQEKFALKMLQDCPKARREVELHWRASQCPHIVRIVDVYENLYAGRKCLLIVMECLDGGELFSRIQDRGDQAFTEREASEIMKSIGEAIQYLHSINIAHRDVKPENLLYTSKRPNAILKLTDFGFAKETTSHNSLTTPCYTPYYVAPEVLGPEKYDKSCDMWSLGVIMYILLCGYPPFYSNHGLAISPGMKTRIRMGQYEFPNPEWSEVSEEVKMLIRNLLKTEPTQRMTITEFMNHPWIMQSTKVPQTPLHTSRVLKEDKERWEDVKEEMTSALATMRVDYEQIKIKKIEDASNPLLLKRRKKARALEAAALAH
# Sequence of Serine/threonine-protein kinase PLK1 (P53350 whole entry): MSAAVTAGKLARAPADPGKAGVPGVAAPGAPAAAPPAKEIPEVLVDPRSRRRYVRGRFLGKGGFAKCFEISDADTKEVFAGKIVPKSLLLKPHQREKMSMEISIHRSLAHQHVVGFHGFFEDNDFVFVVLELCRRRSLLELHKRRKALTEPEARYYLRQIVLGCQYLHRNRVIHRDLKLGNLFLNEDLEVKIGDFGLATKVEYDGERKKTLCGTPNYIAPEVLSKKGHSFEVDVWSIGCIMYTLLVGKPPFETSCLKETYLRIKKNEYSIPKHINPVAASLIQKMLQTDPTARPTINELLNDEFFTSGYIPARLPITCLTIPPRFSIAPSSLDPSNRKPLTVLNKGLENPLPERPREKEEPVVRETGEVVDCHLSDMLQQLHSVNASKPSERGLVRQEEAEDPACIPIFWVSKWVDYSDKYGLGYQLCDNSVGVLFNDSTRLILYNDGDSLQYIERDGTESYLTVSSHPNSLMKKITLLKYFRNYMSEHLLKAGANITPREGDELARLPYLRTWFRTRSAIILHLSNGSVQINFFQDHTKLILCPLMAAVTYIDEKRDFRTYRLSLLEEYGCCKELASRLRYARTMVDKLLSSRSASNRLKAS
Compound,IC50 [1],efflux ratio at 5 µM [2],solubility [3],IC50 [4],IC50 [5],IC50 [6],IC50 [7],IC50 [8],bioavailability [9],IC50 [10],IC50 [11],IC50 [12],efflux ratio at 5 µM [13],IC50 [14],half-life [15],Vd [16],clearance [17],solubility [18],half-life [19]
Cn1cc(-c2cnc3c(-c4csc(C(=O)NCC(F)(F)F)c4)cnn3c2)cn1,0.033 µM,1.9,< 3 µM,> 100 µM,0.24 µM,< 0.01 µM,19 µM,0.48 µM,53%,0.022 µM,0.38 µM,> 100 µM,1.4,> 100 µM,–,–,–,–,–
Cc1sc(C(=O)N[C@@H]2[C@H](N)CCCC2(F)F)cc1-c1cnn2cc(Cl)cnc12,6.4 µM,–,206 µM,7.8 µM,0.48 µM,0.026 µM,0.67 µM,0.99 µM,–,0.14 µM,0.047 µM,2.4 µM,2.9,> 100 µM,42 min,2.3 L/kg,27 mL/min/kg,114 µM,60 min
O=C(NCC(F)(F)F)c1cc(-c2cnn3cc(-c4ccc(OCCN5CCCCC5)cc4)cnc23)cs1,0.03 µM,–,–,55 µM,0.16 µM,< 0.01 µM,5.3 µM,–,46%,0.013 µM,0.26 µM,> 100 µM,–,55 µM,–,–,–,–,–
Cn1cc(-c2cnc3c(-c4csc(C(=O)N[C@@H]5CCCC[C@@H]5N)c4)cnn3c2)cn1 (racemic),0.0028 µM,54,–,0.39 µM,0.048 µM,0.0019 µM,0.26 µM,–,–,0.006 µM,< 0.001 µM,0.33 µM,24,> 10 µM,–,–,–,68 µM,–

# — ChEMBL document CHEMBL4477252, “Optimization of microtubule affinity regulating kinase (MARK) inhibitors with improved physical properties” (Bioorg Med Chem Lett, 2016)
